One data set concerns the target T1, GR (Homo sapiens, UniProt P04150).
T1 construct: host or cells: CHO-K1 (Chinese hamster ovary) cells
T1 sequence (P04150 1-777): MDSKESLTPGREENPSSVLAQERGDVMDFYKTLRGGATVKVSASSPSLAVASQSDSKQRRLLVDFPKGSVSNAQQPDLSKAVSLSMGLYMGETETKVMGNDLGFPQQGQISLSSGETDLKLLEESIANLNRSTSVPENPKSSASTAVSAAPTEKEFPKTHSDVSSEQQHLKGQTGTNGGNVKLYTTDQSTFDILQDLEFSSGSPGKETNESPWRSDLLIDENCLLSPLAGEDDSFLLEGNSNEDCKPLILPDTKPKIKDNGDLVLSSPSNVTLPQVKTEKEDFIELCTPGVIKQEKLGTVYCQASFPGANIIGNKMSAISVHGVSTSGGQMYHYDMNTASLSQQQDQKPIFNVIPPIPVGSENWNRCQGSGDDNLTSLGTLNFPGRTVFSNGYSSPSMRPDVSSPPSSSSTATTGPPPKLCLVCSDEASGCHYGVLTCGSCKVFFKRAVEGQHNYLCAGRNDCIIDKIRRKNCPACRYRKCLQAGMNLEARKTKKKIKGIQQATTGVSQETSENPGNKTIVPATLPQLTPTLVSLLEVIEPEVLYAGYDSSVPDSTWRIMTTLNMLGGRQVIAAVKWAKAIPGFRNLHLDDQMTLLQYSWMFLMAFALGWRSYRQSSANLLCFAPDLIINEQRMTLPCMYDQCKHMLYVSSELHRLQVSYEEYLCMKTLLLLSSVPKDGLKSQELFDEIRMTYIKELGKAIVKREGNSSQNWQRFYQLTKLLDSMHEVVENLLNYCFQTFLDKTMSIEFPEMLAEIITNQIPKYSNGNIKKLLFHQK
The data set is described as follows: PatHunter express CHO-K1 GR nuclear translocation assay. It counts as cell-based. Conditions: CHO-K1 cells; 6 h; at 0.5 μM; dexamethasone positive control. As to the method:
Compound 2 was analysed for GR binding using the PatHunter® express CHO-K1 GR Nuclear Translocation assay (DiscoveRx™, Fremont, CA, USA). Reagents were thawed and equilibrated to room temperature prior to use. Dexamethasone standard (10 mM, 100% DMSO) was diluted and used to prepare 12 standards by 1:4 dilution. Test compound 2 was dissolved in 100% DMSO and diluted in serial 1:3 dilutions to a final concentration of DMSO (v/v) of 0.1%. CHO-K1 (Chinese hamster ovary) cells were seeded in a 96-well plate with CP reagent and incubated for 24 h at 37 °C, 5% CO2. Cells were then incubated with the Dexamethasone standard and compound 2 for 6 h at 37 °C, 5% CO2. Following incubation, signal was detected using the PathHunter® detection reagent provided in the kit and incubated in the dark for 1 h. The plate was read using a luminescence plate reader (Additional file 1: Figure S33).

Data set [1] can be described thus: In vitro non-radioactive metabolite analysis and clearance in HLM. The data set is classed as in vitro ADME, human. As to the method: Microsomal incubations were performed using a Hamilton Microlab Star liquid handling workstation (Hamilton Robotics, Bonaduz, Switzerland). Test compound 2 (final concentration 1 or 10 μM, 1% DMSO) was pre-incubated at 37 °C for 10 min in MLM or HLM (final concentration 1 mg/ml prepared in 10 mM PBS). Reactions were initiated by the addition of NADPH (final concentration 1 mM). Aliquots were removed from each incubation and quenched in 3 volumes of ice-cold MeOH containing internal standard olomoucine (500 nM in MeOH) at − 1, 0, 5, 15, 30 and 60 min. Incubations were conducted in singlicate. […] Terminated incubations were centrifuged at 3700 rpm at 4 °C for 30 min and supernatant taken for analysis. Microsomal incubations were analysed by liquid chromatography-tandem mass spectrometry (LC-MS/MS). This consisted of a Dionex Ultimate 3000 UHPLC system coupled to a ThermoScientific Q Exactive Plus orbitrap mass spectrometer (Thermo Fisher Scientific Inc., Waltham, USA). Chromatographic separation was achieved using an Acquity UPLC HSS T3 column (1.8 μm, 100 × 2.1 mm) (Waters, Elstree, UK) at 50 °C and a binary mobile phase gradient at a flow rate of 0.4 ml/min. Initial LC conditions comprised 10% formic acid (0.1%) in water (A), 90% methanol (B). This was ramped to […] at 12 min. Sample analysis was by positive ion electrospray ionization. The capillary voltage was 3.5 kV. Full MS/dd-MS^2 (full MS scan followed by data dependent MS/MS) and Full MS/AIF (full MS scan followed by all ion fragmentation) workflows were used in combination. Full MS was performed at a resolution of 70,000, AGC target 1 e^6; dd-MS2 at a resolution of 17,5000, AGC target 1 e^5. LC-MS response (peak area of the analyte/peak area of internal standard) was fitted to a nonlinear single exponential model using software GraphPad Prism software (v6.07, GraphPad Software, Inc., La Jolla, USA). Elimination rate constant (k) was determined and intrinsic clearance, CLint, was calculated as CLint = (V.k)/mg protein where V is the incubation volume (μl) and mg protein is the mg microsomal protein in the incubation. Identification of metabolites in microsomal incubations and elucidation of their structures was undertaken with Compound Discoverer software (v2.0.0.303, Thermo Fisher Scientific Inc., Waltham, USA).

As usually defined, the microsomal CLint is the rate of metabolic loss divided by the concentration.

Entries after “also recorded” stand apart in the source; their conditions may differ.

For `CC1(C)OC(=S)Nc2ccc(-c3cccnc3F)cc21` [Compound 2, 6-(2-fluoropyridin-3-yl)-4,4-dimethyl-1H-benzo[d][1,3]oxazine-2(4H)-thione], the “GR nuclear translocation response” value at GR is “poor binder; also recorded: failed to elicit a response”. For the same compound, the “Metabolite identification by mass spectrometry in HLM” value in data set [1] (HLM incubation, LC-MS/MS) was “conversion of the thiocarbamate into oxocarbamate as the major metabolic pathway and highlighted oxidative defluorination”. Also, in data set [1] (HLM versus MLM), the “Clearance, fold slower in HLM than in MLM” value was “ca. 22 fold”. Also, the microsomal CLint in data set [1] (human, human liver microsomes, HLM 1 mg/ml, NADPH 1 mM, 37 °C) is 56 µL/min/mg.
